ChEMBL document CHEMBL4715697, “Synthesis and biological activity of benzamide DNA minor groove binders” (2016)

Legend:
Format in all cases: functional
Details in all cases: read-out: Activity
HL-60(TB) = test: Growth inhibition of human HL-60(TB) cells assessed as cell growth at 10 uM incubated for 48 hrs by sulforhodamine B assay relative to control
K562 = test: Growth inhibition of human K562 cells assessed as cell growth at 10 uM incubated for 48 hrs by sulforhodamine B assay relative to control
MOLT-4 = test: Growth inhibition of human MOLT-4 cells assessed as cell growth at 10 uM incubated for 48 hrs by sulforhodamine B assay relative to control
A549 = test: Growth inhibition of human A549/ATCC cells assessed as cell growth at 10 uM incubated for 48 hrs by sulforhodamine B assay relative to control
EKVX = test: Growth inhibition of human EKVX cells assessed as cell growth at 10 uM incubated for 48 hrs by sulforhodamine B assay relative to control
NCI-H226 = test: Growth inhibition of human NCI-H226 cells assessed as cell growth at 10 uM incubated for 48 hrs by sulforhodamine B assay relative to control
NCI-H23 = test: Growth inhibition of human NCI-H23 cells assessed as cell growth at 10 uM incubated for 48 hrs by sulforhodamine B assay relative to control
NCI-H322M = test: Growth inhibition of human NCI-H322M cells assessed as cell growth at 10 uM incubated for 48 hrs by sulforhodamine B assay relative to control
NCI-H460 = test: Growth inhibition of human NCI-H460 cells assessed as cell growth at 10 uM incubated for 48 hrs by sulforhodamine B assay relative to control
NCI-H522 = test: Growth inhibition of human NCI-H522 cells assessed as cell growth at 10 uM incubated for 48 hrs by sulforhodamine B assay relative to control
HCT-116 = test: Growth inhibition of human HCT-116 cells assessed as cell growth at 10 uM incubated for 48 hrs by sulforhodamine B assay relative to control
HCT-15 = test: Growth inhibition of human HCT-15 cells assessed as cell growth at 10 uM incubated for 48 hrs by sulforhodamine B assay relative to control
HT-29 = test: Growth inhibition of human HT-29 cells assessed as cell growth at 10 uM incubated for 48 hrs by sulforhodamine B assay relative to control
KM12 = test: Growth inhibition of human KM12 cells assessed as cell growth at 10 uM incubated for 48 hrs by sulforhodamine B assay relative to control
SW-620 = test: Growth inhibition of human SW-620 cells assessed as cell growth at 10 uM incubated for 48 hrs by sulforhodamine B assay relative to control
SNB-19 = test: Growth inhibition of human SNB-19 cells assessed as cell growth at 10 uM incubated for 48 hrs by sulforhodamine B assay relative to control
SNB-75 = test: Growth inhibition of human SNB-75 cells assessed as cell growth at 10 uM incubated for 48 hrs by sulforhodamine B assay relative to control
U-251 = test: Growth inhibition of human U-251 cells assessed as cell growth at 10 uM incubated for 48 hrs by sulforhodamine B assay relative to control
MDA-MB-435 = test: Growth inhibition of human MDA-MB-435 cells assessed as cell growth at 10 uM incubated for 48 hrs by sulforhodamine B assay relative to control
SK-MEL-2 = test: Growth inhibition of human SK-MEL-2 cells assessed as cell growth at 10 uM incubated for 48 hrs by sulforhodamine B assay relative to control
SK-MEL-28 = test: Growth inhibition of human SK-MEL-28 cells assessed as cell growth at 10 uM incubated for 48 hrs by sulforhodamine B assay relative to control
SK-MEL-5 = test: Growth inhibition of human SK-MEL-5 cells assessed as cell growth at 10 uM incubated for 48 hrs by sulforhodamine B assay relative to control
UACC-257 = test: Growth inhibition of human UACC-257 cells assessed as cell growth at 10 uM incubated for 48 hrs by sulforhodamine B assay relative to control
UACC-62 = test: Growth inhibition of human UACC-62 cells assessed as cell growth at 10 uM incubated for 48 hrs by sulforhodamine B assay relative to control
IGROV-1 = test: Growth inhibition of human IGROV-1 cells assessed as cell growth at 10 uM incubated for 48 hrs by sulforhodamine B assay relative to control
OVCAR-3 = test: Growth inhibition of human OVCAR-3 cells assessed as cell growth at 10 uM incubated for 48 hrs by sulforhodamine B assay relative to control
OVCAR-5 = test: Growth inhibition of human OVCAR-5 cells assessed as cell growth at 10 uM incubated for 48 hrs by sulforhodamine B assay relative to control
OVCAR-8 = test: Growth inhibition of human OVCAR-8 cells assessed as cell growth at 10 uM incubated for 48 hrs by sulforhodamine B assay relative to control
NCI/ADR-RES = test: Growth inhibition of human NCI/ADR-RES cells assessed as cell growth at 10 uM incubated for 48 hrs by sulforhodamine B assay relative to control
SK-OV-3 = test: Growth inhibition of human SK-OV-3 cells assessed as cell growth at 10 uM incubated for 48 hrs by sulforhodamine B assay relative to control
786-0 = test: Growth inhibition of human 786-0 cells assessed as cell growth at 10 uM incubated for 48 hrs by sulforhodamine B assay relative to control
RXF 393 = test: Growth inhibition of human RXF 393 cells assessed as cell growth at 10 uM incubated for 48 hrs by sulforhodamine B assay relative to control
SN12C = test: Growth inhibition of human SN12C cells assessed as cell growth at 10 uM incubated for 48 hrs by sulforhodamine B assay relative to control
TK-10 = test: Growth inhibition of human TK-10 cells assessed as cell growth at 10 uM incubated for 48 hrs by sulforhodamine B assay relative to control
UO-31 = test: Growth inhibition of human UO-31 cells assessed as cell growth at 10 uM incubated for 48 hrs by sulforhodamine B assay relative to control
PC-3 = test: Growth inhibition of human PC-3 cells assessed as cell growth at 10 uM incubated for 48 hrs by sulforhodamine B assay relative to control
BT-549 = test: Growth inhibition of human BT-549 cells assessed as cell growth at 10 uM incubated for 48 hrs by sulforhodamine B assay relative to control
T47D = test: Growth inhibition of human T47D cells assessed as cell growth at 10 uM incubated for 48 hrs by sulforhodamine B assay relative to control
RPMI-8226 = test: Growth inhibition of human RPMI-8226 cells assessed as cell growth at 10 uM incubated for 48 hrs by sulforhodamine B assay relative to control
SR = test: Growth inhibition of human SR cells assessed as cell growth at 10 uM incubated for 48 hrs by sulforhodamine B assay relative to control

| SMILES | growth at 10 µM (HL-60(TB)) [%] | growth at 10 µM (K562) [%] | growth at 10 µM (MOLT-4) [%] | growth at 10 µM (A549) [%] | growth at 10 µM (EKVX) [%] | growth at 10 µM (NCI-H226) [%] | growth at 10 µM (NCI-H23) [%] | growth at 10 µM (NCI-H322M) [%] | growth at 10 µM (NCI-H460) [%] | growth at 10 µM (NCI-H522) [%] | growth at 10 µM (HCT-116) [%] | growth at 10 µM (HCT-15) [%] | growth at 10 µM (HT-29) [%] | growth at 10 µM (KM12) [%] | growth at 10 µM (SW-620) [%] | growth at 10 µM (SNB-19) [%] | growth at 10 µM (SNB-75) [%] | growth at 10 µM (U-251) [%] | growth at 10 µM (MDA-MB-435) [%] | growth at 10 µM (SK-MEL-2) [%] | also measured |
| --- | --- | --- | --- | --- | --- | --- | --- | --- | --- | --- | --- | --- | --- | --- | --- | --- | --- | --- | --- | --- | --- |
| CCN(CC)CC(=O)Nc1cccc(C(=O)Nc2cc(CO)cc(NC(C)=O)c2)c1 | 105 | 105 | 111 | 103 | 120 | 95.7 | 98.4 | 117 | 104 | 93.8 | 99.6 | 103 | 103 | 110 | 115 | 105 | 91 | 103 | 110 | 99.8 | growth at 10 µM (SK-MEL-28): 112%; growth at 10 µM (SK-MEL-5): 102%; growth at 10 µM (UACC-257): 101%; growth at 10 µM (UACC-62): 106%; growth at 10 µM (IGROV-1): 130%; growth at 10 µM (OVCAR-3): 126%; growth at 10 µM (OVCAR-5): 105%; growth at 10 µM (OVCAR-8): 115%; growth at 10 µM (NCI/ADR-RES): 107%; growth at 10 µM (SK-OV-3): 104%; growth at 10 µM (786-0): 98.7%; growth at 10 µM (RXF 393): 102%; growth at 10 µM (SN12C): 112%; growth at 10 µM (TK-10): 96.6%; growth at 10 µM (UO-31): 96.6%; growth at 10 µM (PC-3): 102%; growth at 10 µM (BT-549): 105%; growth at 10 µM (T47D): 92.9% |
| CC(=O)Nc1cccc(NC(=O)c2ccc(C(=O)Nc3cc(CCl)cc(NC(C)=O)c3)cc2)c1 | 93.4 | 104 | 93.3 | 118 | 114 | 101 | 107 | 125 | 112 | 90.8 | 116 | 109 | 111 | 118 | 114 | 104 | 113 | 113 | 108 | 100 | growth at 10 µM (RPMI-8226): 98.8%; growth at 10 µM (SR): 103%; growth at 10 µM (SK-MEL-28): 115%; growth at 10 µM (SK-MEL-5): 102%; growth at 10 µM (UACC-257): 106%; growth at 10 µM (UACC-62): 98.3%; growth at 10 µM (OVCAR-3): 128%; growth at 10 µM (OVCAR-5): 112%; growth at 10 µM (OVCAR-8): 108%; growth at 10 µM (NCI/ADR-RES): 109%; growth at 10 µM (SK-OV-3): 113%; growth at 10 µM (786-0): 112%; growth at 10 µM (RXF 393): 114%; growth at 10 µM (SN12C): 102%; growth at 10 µM (TK-10): 113%; growth at 10 µM (UO-31): 104%; growth at 10 µM (PC-3): 95.2%; growth at 10 µM (BT-549): 108%; growth at 10 µM (T47D): 95.8% |
| CC(=O)Nc1cc(CO)cc(NC(=O)c2ccc(C(=O)NCCCN(C)C)cc2)c1 | 104 | 104 | 95.4 | 107 | 108 | 92 | 104 | 121 | 112 | 88.4 | 104 | 106 | 100 | 118 | 107 | 101 | 87.8 | 107 | 103 | 92.9 | growth at 10 µM (RPMI-8226): 98.2%; growth at 10 µM (SR): 91.7%; growth at 10 µM (SK-MEL-28): 108%; growth at 10 µM (SK-MEL-5): 96.4%; growth at 10 µM (UACC-257): 107%; growth at 10 µM (UACC-62): 95.9%; growth at 10 µM (OVCAR-3): 129%; growth at 10 µM (OVCAR-5): 107%; growth at 10 µM (OVCAR-8): 108%; growth at 10 µM (NCI/ADR-RES): 112%; growth at 10 µM (SK-OV-3): 106%; growth at 10 µM (786-0): 102%; growth at 10 µM (RXF 393): 116%; growth at 10 µM (SN12C): 95.6%; growth at 10 µM (TK-10): 99%; growth at 10 µM (UO-31): 98.1%; growth at 10 µM (PC-3): 97.9%; growth at 10 µM (BT-549): 98.6%; growth at 10 µM (T47D): 92.9% |
| CC(=O)Nc1cc(CCl)cc(NC(=O)c2ccc(C(=O)NCCCN(C)C)cc2)c1 | 104 | 106 | 105 | 98.5 | 101 | 105 | 97.8 | 116 | 104 | 98.7 | 103 | 104 | 103 | 107 | 108 | 117 | 86 | 103 | 105 | 102 | growth at 10 µM (SK-MEL-28): 107%; growth at 10 µM (SK-MEL-5): 108%; growth at 10 µM (UACC-257): 102%; growth at 10 µM (UACC-62): 114%; growth at 10 µM (IGROV-1): 136%; growth at 10 µM (OVCAR-3): 106%; growth at 10 µM (OVCAR-5): 97.5%; growth at 10 µM (OVCAR-8): 111%; growth at 10 µM (NCI/ADR-RES): 109%; growth at 10 µM (SK-OV-3): 107%; growth at 10 µM (786-0): 104%; growth at 10 µM (RXF 393): 116%; growth at 10 µM (SN12C): 128%; growth at 10 µM (TK-10): 107%; growth at 10 µM (UO-31): 103%; growth at 10 µM (PC-3): 109%; growth at 10 µM (BT-549): 105%; growth at 10 µM (T47D): 97.6% |
| CC(=O)Nc1ccc(C(=O)Nc2cc(CO)cc(NC(C)=O)c2)cc1 | 101 | 99.5 | 96 | 108 | 112 | 99.9 | 107 | 109 | 109 | 89.5 | 106 | 106 | 106 | 115 | 118 | 100 | 96.7 | 110 | 108 | 96.3 | growth at 10 µM (RPMI-8226): 96.6%; growth at 10 µM (SR): 92.1%; growth at 10 µM (SK-MEL-28): 116%; growth at 10 µM (SK-MEL-5): 98.8%; growth at 10 µM (UACC-257): 107%; growth at 10 µM (UACC-62): 101%; growth at 10 µM (OVCAR-3): 123%; growth at 10 µM (OVCAR-5): 105%; growth at 10 µM (OVCAR-8): 109%; growth at 10 µM (NCI/ADR-RES): 110%; growth at 10 µM (SK-OV-3): 105%; growth at 10 µM (786-0): 99.4%; growth at 10 µM (RXF 393): 112%; growth at 10 µM (SN12C): 104%; growth at 10 µM (TK-10): 101%; growth at 10 µM (UO-31): 101%; growth at 10 µM (PC-3): 104%; growth at 10 µM (BT-549): 108%; growth at 10 µM (T47D): 94.7% |
